According to patent US6562817B1, “Tricyclic compound” (Shionogi & Co., Ltd., priority 1998, dated 2003):

Columns and labels:
[1] = tested on: anti-OVA IgE production in BALB/c mice; experiment: Suppressive effect on the IgE production against ovalbumin (OVA): anti-OVA IgE antibody titer (PCA titer); format: in vivo, mouse; details: BALB/c mice immunized with OVA, 40 mg/kg orally for 10 days; titer = highest 2^n serum dilution positive in rat PCA
Procedure: Suppressive effect on the IgE Production Against ovalbumin (OVA)
BALB/c mice (female, 8-10 weeks old) and Wistar rats (female, 8-10 weeks old) which were bought from Japan SLC, Inc. (Shizuoka) were used.
BALB/c mice were immunized by an intraperitoneal administration of 0.2 ml suspension of 2 μg of ovalbumin (OVA) and 2 mg of aluminium hydroxide gel in physiological saline. After 10 days, blood was collected from hearts, then sera were separated and stocked at −40° C. till the measurement of IgE antibody titer.
After the compound of the present invention was dissolved or suspended in N,N-dimethylacetoamide, the mixture was diluted 20 times with miglyol 812 neutral oil. The obtained solution was orally administered to mice at 0.1 ml per mouse (dose 40 mg/kg). The administration was continued for 10 days from the immunizing day to the day before the blood collection.
The obtained mouse serum was 2-fold diluted with physiological saline, then each 50 μl of the solution was intradermally injected at dorsal skin of Wistar rats which previously hair cut. After 24 hours, a passive cutaneous anaphylaxis reaction (PCA) was induced by an intravenous injection of 0.5 ml of physiological saline containing 1 mg of OVA and 5 mg of Evans' blue dye. The rats were sacrified 30 minutes later and the highest dilution giving bluing with a diameter of 5 mm or more was recorded as the PCA titer. […]

melting point: 87 to 88 °C
Structure (SMILES): CC(C)=CCNc1ccc(-c2cc(C)c(-c3ccc(OCC=C(C)C)nc3)cc2C)c(F)c1 [Ib-250]
PCA Titer [1]: 0
